Laboratory results taken from publication PMC6576746, “Rational discovery of dual-indication multi-target PDE/Kinase inhibitor for precision anti-cancer therapy using structural systems pharmacology” (PLoS Computational Biology, 2019).

Tests used:
Test in all cases: biochemical
Design in all cases: DiscoverX KinomeScan competition binding assay across human kinases; per cent of control at 10 and 100 uM
ERK5 = target: T1, ERK5 (Homo sapiens, UniProt Q13164); settings: competition binding, % of control; read-out: Percent Control (100 uM Levosimendan)
T1 construct: gene MAPK7
Protocol: (§1) To validate our computational predictions, we employed a competition binding assay to detect the binding of levosimendan to 425 human kinases as well as its dose-response curve to RIOK1. The proprietary KinomeScan assay was performed by DiscoverX (Fremont, California, USA). The tests were performed at 10 μM and 100 μM concentrations of levosimendan, respectively. Assay results were reported as %control, calculated as follows: %control=(TestCompoundSignal−PositiveControlSignal)/(NegativeControlSignal−PositiveControlSignal)×100 KinomeScan assay across 452 human kinases verified our computational prediction (S1 Table). RIOK1 is one of the strongest inhibited kinases by levosimendan. The percentage control of RIOK1 is 15.0 and 0.0 under the treatment of 10 μM and 100 μM of levosimendan, respectively. […] The percentage controls of five kinases: FLT3, MAP2K5, PIP5K1A, GAK, and KIT are less than 30.0 under the treatment of both 10 μM and 100 μM of levosimendan. Both FLT3 and KIT are tyrosine protein kinases. Their inhibitors have recently been approved for the treatment of Acute Myeloid Leukemia and other types of cancers, but a combination therapy is needed to overcome rapidly emerged drug resistance, thus improve patients’ drug responses. Other kinases inhibited by levosimendan belong to serine/threonine protein kinase family (RIOK1, RIOK3, GAK, and MAP2K5) and lipid kinase family (PIP5K1A). […] As a result, levosimendan may modulate different cancer pathways from those by the tyrosine protein kinase inhibitors, and it could be a novel lead compound for a new anti-cancer therapy to overcome drug resistance of existing drugs or to target different types of cancers through polypharmacology or drug combination.

[1] = target: EGFR(L747-E749del, A750P) (Homo sapiens, UniProt P00533, A750P/DEL747-749); settings: competition binding, % of control; read-out: Percent Control (100 uM Levosimendan)
Protocol: as §1

AAK1 = AAK1 (Homo sapiens, UniProt Q2M2I8); settings: competition binding, % of control
Protocol: as §1

[2] = target: T2, ABL1(M351T)-phosphorylated (Homo sapiens, UniProt P00519, M351T); settings: competition binding, % of control; read-out: Percent Control (100 uM Levosimendan)
T2 construct: phosphorylated
Protocol: as §1

[3] = target: T3, RPS6KA5(Kin.Dom.2-C-terminal) (Homo sapiens, UniProt O75582); settings: competition binding, % of control; read-out: Percent Control (100 uM Levosimendan)
T3 construct: Kin.Dom.2-C-terminal
Protocol: as §1

MLCK = target: T4, MLCK (Homo sapiens, UniProt Q32MK0); settings: competition binding, % of control; read-out: Percent Control (100 uM Levosimendan)
T4 construct: gene MYLK3
Protocol: as §1

TNK1 = TNK1 (Homo sapiens, UniProt Q13470); settings: competition binding, % of control; read-out: Percent Control (100 uM Levosimendan)
Protocol: as §1

EPHA2 = EPHA2 (Homo sapiens, UniProt P29317); settings: competition binding, % of control; read-out: Percent Control (100 uM Levosimendan)
Protocol: as §1

GRK3 = GRK3 (Homo sapiens, UniProt P35626); settings: competition binding, % of control; read-out: Percent Control (100 uM Levosimendan)
Protocol: as §1

EGFR = EGFR (Homo sapiens, UniProt P00533); settings: competition binding, % of control
Protocol: as §1

PIK3CD = PIK3CD (Homo sapiens, UniProt O00329); settings: competition binding, % of control; read-out: Percent Control (100 uM Levosimendan)
Protocol: as §1

PAK1 = PAK1 (Homo sapiens, UniProt Q13153); settings: competition binding, % of control; read-out: Percent Control (100 uM Levosimendan)
Protocol: as §1

PAK2 = PAK2 (Homo sapiens, UniProt Q13177); settings: competition binding, % of control; read-out: Percent Control (100 uM Levosimendan)
Protocol: as §1

[4] = target: T5, RSK3(Kin.Dom.1-N-terminal) (Homo sapiens, UniProt Q15349); settings: competition binding, % of control; read-out: Percent Control (100 uM Levosimendan)
T5 construct: gene RPS6KA2; Kin.Dom.1-N-terminal
Protocol: as §1

CAMK1G = CAMK1G (Homo sapiens, UniProt Q96NX5); settings: competition binding, % of control; read-out: Percent Control (100 uM Levosimendan)
Protocol: as §1

BRSK2 = BRSK2 (Homo sapiens, UniProt Q8IWQ3); settings: competition binding, % of control; read-out: Percent Control (100 uM Levosimendan)
Protocol: as §1

CDC2L2 = target: T6, CDC2L2 (Homo sapiens, UniProt Q9UQ88); settings: competition binding, % of control; read-out: Percent Control (100 uM Levosimendan)
T6 construct: gene CDK11A
Protocol: as §1

PIM2 = PIM2 (Homo sapiens, UniProt Q9P1W9); settings: competition binding, % of control
Protocol: as §1

[5] = read-out: Percent Control (10 uM Levosimendan)
[6] = read-out: Percent Control (100 uM Levosimendan)

Chain of AAK1 (Q2M2I8 whole entry): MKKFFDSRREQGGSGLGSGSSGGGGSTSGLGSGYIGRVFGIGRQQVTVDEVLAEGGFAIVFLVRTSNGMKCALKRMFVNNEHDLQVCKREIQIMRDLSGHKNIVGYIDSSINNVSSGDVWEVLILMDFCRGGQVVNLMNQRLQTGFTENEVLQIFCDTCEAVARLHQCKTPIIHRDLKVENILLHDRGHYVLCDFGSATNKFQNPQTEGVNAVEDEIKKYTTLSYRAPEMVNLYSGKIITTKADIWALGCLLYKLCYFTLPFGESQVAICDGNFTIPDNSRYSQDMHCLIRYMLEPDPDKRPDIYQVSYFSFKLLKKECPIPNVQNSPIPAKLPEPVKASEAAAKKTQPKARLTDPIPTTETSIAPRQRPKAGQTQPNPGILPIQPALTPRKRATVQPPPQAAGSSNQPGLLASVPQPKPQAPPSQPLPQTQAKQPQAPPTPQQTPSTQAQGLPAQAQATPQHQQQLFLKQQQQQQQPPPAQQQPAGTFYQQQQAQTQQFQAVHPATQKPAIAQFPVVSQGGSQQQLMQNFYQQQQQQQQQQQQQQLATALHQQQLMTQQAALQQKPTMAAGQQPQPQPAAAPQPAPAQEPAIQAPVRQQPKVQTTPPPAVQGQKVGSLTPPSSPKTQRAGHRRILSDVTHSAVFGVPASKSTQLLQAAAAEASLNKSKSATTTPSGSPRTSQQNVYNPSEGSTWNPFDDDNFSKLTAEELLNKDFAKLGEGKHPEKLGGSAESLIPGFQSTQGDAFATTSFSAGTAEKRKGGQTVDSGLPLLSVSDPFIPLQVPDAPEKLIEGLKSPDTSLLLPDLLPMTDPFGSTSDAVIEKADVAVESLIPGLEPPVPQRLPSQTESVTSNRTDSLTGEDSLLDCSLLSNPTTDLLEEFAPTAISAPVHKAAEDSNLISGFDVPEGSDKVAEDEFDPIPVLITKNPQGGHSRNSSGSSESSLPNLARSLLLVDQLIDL
Chain of PIM2 (Q9P1W9 whole entry): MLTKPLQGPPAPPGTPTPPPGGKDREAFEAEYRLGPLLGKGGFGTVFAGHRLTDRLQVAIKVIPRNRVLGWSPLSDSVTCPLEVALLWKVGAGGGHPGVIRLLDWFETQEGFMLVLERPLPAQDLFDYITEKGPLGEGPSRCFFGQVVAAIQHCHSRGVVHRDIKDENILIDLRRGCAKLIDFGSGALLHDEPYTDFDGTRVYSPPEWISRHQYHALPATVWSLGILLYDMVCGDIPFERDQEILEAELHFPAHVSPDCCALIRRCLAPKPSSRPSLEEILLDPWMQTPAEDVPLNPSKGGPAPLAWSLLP
Chain of EGFR (P00533 whole entry): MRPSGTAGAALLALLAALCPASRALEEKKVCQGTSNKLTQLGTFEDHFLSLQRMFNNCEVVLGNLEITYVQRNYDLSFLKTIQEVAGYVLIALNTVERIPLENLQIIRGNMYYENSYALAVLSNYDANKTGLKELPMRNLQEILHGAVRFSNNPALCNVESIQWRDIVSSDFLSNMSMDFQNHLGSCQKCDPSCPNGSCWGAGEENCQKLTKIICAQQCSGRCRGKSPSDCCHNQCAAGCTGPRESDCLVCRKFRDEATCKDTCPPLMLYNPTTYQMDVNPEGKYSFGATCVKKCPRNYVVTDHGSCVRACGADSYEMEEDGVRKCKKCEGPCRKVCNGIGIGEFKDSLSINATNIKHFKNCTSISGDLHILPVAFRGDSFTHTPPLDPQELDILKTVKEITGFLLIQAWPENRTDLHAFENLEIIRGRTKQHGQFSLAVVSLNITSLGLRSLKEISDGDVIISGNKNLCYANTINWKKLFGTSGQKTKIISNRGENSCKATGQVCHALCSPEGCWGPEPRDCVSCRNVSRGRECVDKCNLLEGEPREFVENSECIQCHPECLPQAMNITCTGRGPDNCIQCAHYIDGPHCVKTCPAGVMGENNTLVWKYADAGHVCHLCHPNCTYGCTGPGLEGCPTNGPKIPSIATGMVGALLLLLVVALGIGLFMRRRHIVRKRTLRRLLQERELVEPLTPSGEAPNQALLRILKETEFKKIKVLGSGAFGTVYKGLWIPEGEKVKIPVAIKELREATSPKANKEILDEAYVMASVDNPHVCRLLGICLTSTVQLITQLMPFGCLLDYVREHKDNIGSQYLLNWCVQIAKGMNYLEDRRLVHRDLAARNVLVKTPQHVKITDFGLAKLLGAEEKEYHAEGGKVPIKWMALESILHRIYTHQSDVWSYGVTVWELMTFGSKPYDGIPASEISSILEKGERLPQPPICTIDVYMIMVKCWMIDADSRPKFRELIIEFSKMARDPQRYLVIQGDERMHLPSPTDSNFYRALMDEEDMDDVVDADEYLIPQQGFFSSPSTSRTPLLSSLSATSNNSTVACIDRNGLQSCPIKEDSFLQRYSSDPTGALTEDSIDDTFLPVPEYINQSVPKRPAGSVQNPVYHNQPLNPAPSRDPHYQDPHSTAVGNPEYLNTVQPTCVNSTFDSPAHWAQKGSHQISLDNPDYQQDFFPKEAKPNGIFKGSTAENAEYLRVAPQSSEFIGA
Chain of EPHA2 (P29317 whole entry): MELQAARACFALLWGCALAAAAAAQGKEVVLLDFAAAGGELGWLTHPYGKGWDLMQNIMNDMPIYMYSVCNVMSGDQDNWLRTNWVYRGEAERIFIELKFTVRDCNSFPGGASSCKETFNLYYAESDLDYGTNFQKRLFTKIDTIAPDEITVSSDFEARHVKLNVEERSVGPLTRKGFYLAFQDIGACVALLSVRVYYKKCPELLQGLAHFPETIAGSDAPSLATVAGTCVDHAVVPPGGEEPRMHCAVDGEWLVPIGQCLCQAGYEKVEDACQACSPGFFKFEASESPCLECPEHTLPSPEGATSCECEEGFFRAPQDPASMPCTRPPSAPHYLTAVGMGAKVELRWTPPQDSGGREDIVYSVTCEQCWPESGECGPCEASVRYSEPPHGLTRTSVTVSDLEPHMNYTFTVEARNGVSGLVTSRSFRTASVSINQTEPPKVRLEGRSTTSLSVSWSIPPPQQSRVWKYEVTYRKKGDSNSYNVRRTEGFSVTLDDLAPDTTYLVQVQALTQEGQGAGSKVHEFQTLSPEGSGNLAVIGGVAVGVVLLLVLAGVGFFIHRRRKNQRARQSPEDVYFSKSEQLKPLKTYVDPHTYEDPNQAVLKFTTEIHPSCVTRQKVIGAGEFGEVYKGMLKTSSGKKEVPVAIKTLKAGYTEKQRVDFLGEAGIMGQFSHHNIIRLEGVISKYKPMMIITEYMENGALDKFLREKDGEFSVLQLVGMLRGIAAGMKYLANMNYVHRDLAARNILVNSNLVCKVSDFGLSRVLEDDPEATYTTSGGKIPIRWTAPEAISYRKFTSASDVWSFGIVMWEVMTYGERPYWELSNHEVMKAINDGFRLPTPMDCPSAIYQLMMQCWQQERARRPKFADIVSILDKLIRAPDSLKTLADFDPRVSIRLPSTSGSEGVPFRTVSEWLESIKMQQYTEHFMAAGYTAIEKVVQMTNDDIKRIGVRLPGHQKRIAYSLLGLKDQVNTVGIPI
T6 sequence (Q9UQ88 whole entry): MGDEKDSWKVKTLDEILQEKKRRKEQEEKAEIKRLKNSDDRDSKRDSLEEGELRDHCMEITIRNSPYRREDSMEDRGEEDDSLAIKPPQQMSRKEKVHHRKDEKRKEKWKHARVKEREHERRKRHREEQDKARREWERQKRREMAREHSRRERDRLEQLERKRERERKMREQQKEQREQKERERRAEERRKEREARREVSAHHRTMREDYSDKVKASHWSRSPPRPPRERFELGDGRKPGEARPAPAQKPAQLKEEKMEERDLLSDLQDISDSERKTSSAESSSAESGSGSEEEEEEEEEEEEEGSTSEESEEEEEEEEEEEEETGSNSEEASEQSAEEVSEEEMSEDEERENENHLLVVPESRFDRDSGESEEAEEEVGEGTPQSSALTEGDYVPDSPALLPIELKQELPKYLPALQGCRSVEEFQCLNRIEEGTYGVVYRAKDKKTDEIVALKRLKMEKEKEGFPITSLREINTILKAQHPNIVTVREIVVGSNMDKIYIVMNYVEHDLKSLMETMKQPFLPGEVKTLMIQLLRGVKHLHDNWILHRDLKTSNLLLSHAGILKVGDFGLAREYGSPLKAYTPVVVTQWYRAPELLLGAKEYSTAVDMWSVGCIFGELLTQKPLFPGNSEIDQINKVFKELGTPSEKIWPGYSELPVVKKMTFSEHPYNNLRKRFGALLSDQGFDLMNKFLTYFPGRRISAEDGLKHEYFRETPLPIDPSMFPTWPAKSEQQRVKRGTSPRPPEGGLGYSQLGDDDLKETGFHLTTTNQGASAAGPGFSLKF
Chain of PAK1 (Q13153 whole entry): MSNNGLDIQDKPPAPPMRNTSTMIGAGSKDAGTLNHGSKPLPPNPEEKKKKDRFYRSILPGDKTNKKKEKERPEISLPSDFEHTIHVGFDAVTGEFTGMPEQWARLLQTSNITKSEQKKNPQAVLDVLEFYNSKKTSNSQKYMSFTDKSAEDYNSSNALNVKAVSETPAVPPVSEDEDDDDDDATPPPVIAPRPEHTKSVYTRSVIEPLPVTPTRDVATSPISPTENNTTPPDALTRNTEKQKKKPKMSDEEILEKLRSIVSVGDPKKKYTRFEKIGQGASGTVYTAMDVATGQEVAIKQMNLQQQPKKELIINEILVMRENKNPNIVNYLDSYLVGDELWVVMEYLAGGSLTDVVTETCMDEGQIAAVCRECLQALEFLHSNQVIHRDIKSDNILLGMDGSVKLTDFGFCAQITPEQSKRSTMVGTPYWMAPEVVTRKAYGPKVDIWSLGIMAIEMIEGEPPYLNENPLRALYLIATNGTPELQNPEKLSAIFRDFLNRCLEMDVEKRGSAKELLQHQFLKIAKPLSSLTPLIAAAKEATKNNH

remaining binding at 100 µM (ERK5): 100%
remaining binding at 100 µM [1]: 64%
remaining binding at 10 µM (AAK1; [5]): 31%
remaining binding at 100 µM (AAK1; [6]): 24%
remaining binding at 100 µM [2]: 79%
remaining binding at 100 µM [3]: 100%
remaining binding at 100 µM (MLCK): 100%
remaining binding at 100 µM (TNK1): 100%
remaining binding at 100 µM (EPHA2): 76%
remaining binding at 100 µM (GRK3): 100%
remaining binding at 10 µM (EGFR; [5]): 78%
remaining binding at 100 µM (EGFR; [6]): 28%
remaining binding at 100 µM (PIK3CD): 100%
remaining binding at 100 µM (PAK1): 73%
remaining binding at 100 µM (PAK2): 78%
remaining binding at 100 µM [4]: 100%
remaining binding at 100 µM (CAMK1G): 62%
remaining binding at 100 µM (BRSK2): 100%
remaining binding at 100 µM (CDC2L2): 100%
remaining binding at 10 µM (PIM2; [5]): 84%
remaining binding at 100 µM (PIM2; [6]): 20%
Compound: C[C@@H]1CC(=O)NN=C1c1ccc(NN=C(C#N)C#N)cc1 [levosimendan]
